Square brackets hold non-standard residues; d marks the D form. Peptide text beside a SMILES is read from it. * marks the point of attachment. Phe(4-NH2) = Nc1ccc(C[C@H](N)C(=O)O)cc1; X1 = CC(CCCCC(=O)*)NCC(O)c1ccc(O)c(O)c1; Nva(5-OH) = N[C@@H](CCCO)C(=O)O; Boc = CC(C)(C)OC(=O)*

The test system of test [1] is S49 cells. The test can be described thus: wild type S49 cell assay, cyclic AMP accumulation (relative beta adrenergic activity). The test is classed as cell-based. Conditions: in vitro, ratio of KA for isoproterenol to KA for the compound, isoproterenol = 1. The protocol:
The biological activity of the conjugates of the invention was tested in a wild type S49 cell assay. The assay is indicative of the relative beta adrenergic activity of the compound. The activity of each conjugate tested was compared to the activity of isoproterenol as the base standard. In the test, S49 cells were centrifuged and then resuspended (2 to 2.5×10^6 cells per ml.) in Dulbecco's modified Eagle medium (13.3 g per liter) and 20 mM Hepes (pH 7.4)+0.1% bovine serum albumin. The S49 suspensions were incubated at 37° C. for 10 minutes without the conjugate and then added to tubes with or without the conjugate for an additional 6 minutes. The reaction was stopped by cooling on ice. Incubation without the conjugates present established a base line. After isolation of a pellet of cells by centrifugation they were resuspended and boiled. Aliquots were then used for the competitive binding assay for cyclic AMP described by Gilman in the Procedings of the National Academy of Sciences USA 67, 305-312 (1970). Results were plotted as pmol cyclic AMP accumulated per 10^7 cells in excess of base line as a function of the log of the concentration of the analog. | ^a Biological activity was measured by cyclic AMP accumulation in S49 | cells. Relative activity is expressed as the ration of KA for | isoproterenol to KA for the compound.

The subject of test [2] is rat blood pressure. Nature of the test: in vivo reduction of rat blood pressure after injection into the femoral vein. More on the design: species or system male Sprague-Dawley rats. Conditions: 0.001 to 10.0 mg/kg, ratio of molar ED50 of isoproterenol to molar ED50 of the compound (dose that reduces rat blood pressure by 50%). The protocol: In addition to the in vitro testing set forth above, in vivo testing was also conducted on a number of conjugates of the invention. The tests were conducted by injecting various doses of the test conjugate into the femoral vein of rats and thereafter recording changes in heart rate, arterial pulse pressure and mean pressure.
More specifically, male Sprague-Dawley rats weighing 280-350 g had their femoral arteries connected to a Statham P-23 pressure transducer, which was in turn recorded on a Beckman Dynograph model R511A. Venus cannula were inserted in the femoral veins. Two syringes were attached to the veins via a 3-way stopcock. One syringe contained heparinized saline (40 units/ml) while the other contained the conjugate to be tested.
All cannulas were periodically flushed with the heparinized saline to prevent clots from forming. After the blood pressure and heart rate had stabilized, a volume of heparinized saline corresponding to the volume of drug conjugate the animal was to receive, was injected, and the response observed. Then various doses of the test drug conjugate were injected with a minimum interval of ten minutes between doses. The dose range was from 0.001 to 10.0 mg/kg, with the doses always being administered in increasing amounts. From the drug injections, a dose-response curve was obtained. The response curves were then compared to the animals' response to isoproterenol administered under the same conditions. Table 3 below presents the results of these in vivo tests:
^a Biological activity in vivo was measured as the effective dose tha
reduces rat blood pressure by 50%. Relative activity is expressed as the
ratio of the molar ED50 of isoproterenol to the molar ED50 of […]

On to `CC(=O)N[C@@H](Cc1ccc(NC(=O)CCCCC(C)NCC(O)c2ccc(O)c(O)c2)cc1)C(=O)NCCCO` (some centres unmarked) [A], for which, in test [1], the “Activity relative to isoproterenol” value is 9.0 × 10^-2.

Take `CC(=O)N[C@H](Cc1ccc(NC(=O)CCCCC(C)NCC(O)c2ccc(O)c(O)c2)cc1)C(=O)NCCCO` (some centres unmarked) [B]: in test [1], the “Activity relative to isoproterenol” value is on record as 4.0 × 10^-1.

Consider `CC(=O)N[C@@H](Cc1ccc(NC(=O)CCCCC(C)NCC(O)c2ccc(O)c(O)c2)cc1)C(=O)NCC(=O)O` (some centres unmarked) [C], for which the “Activity relative to isoproterenol” value in test [1] is recorded as 4.4 × 10^-1.

With `CNC(=O)CNC(=O)[C@H](Cc1ccc(NC(=O)CCCCC(C)NCC(O)c2ccc(O)c(O)c2)cc1)NC(C)=O` (stereo partly drawn) [D, N^α -Acetyl-p-[6-(β-3',4-Dihydroxyphenyl-β-Hydroxy)-Ethylamino-n-Heptanoylamino]-L-Phenylalanyl-Glycyl-Methylamide], the “Activity relative to isoproterenol” value in test [1] is given as 1.1.

For the molecule `CNC(=O)CNC(=O)[C@H](Cc1ccc(NC(=O)CCCCC(C)NCC(O)c2ccc(O)c(O)c2)cc1)NC(=O)OC(C)(C)C` (stereo partly drawn) [E, N^α -t-Butyloxycarbonyl-p-[6-(β-3',4'-Dihydroxyphenyl-β-Hydroxy)-Ethylamino-n-Heptanoylamino]-L-Phenylalanyl-Glycyl-Methylamide], the “Activity relative to isoproterenol” value in test [1] came out at 4.1. For the same molecule, the “In Vivo Activity Relative to Isoproterenol” value in test [2] is 3.74.

As to `CNC(=O)CNC(=O)[C@@H](N)Cc1ccc(NC(=O)CCCCC(C)NCC(O)c2ccc(O)c(O)c2)cc1` (some centres unmarked) [F], the “Activity relative to isoproterenol” value in test [1] was 1.3 × 10^-4.

Turning to `CNC(=O)[C@H](Cc1ccc(NC(=O)CCCCC(C)NCC(O)c2ccc(O)c(O)c2)cc1)NC(=O)CNC(=O)OC(C)(C)C` (some centres unmarked) [G], in test [1], the “Activity relative to isoproterenol” value is given as 6.8 × 10^-1. For the same molecule, the “In Vivo Activity Relative to Isoproterenol” value in test [2] is “.92”.

Regarding `CNC(=O)CC[C@H](NC(C)=O)C(=O)N[C@@H](Cc1ccc(NC(=O)CCCCC(C)NCC(O)c2ccc(O)c(O)c2)cc1)C(=O)NCC(=O)NC` (some centres unmarked) [H], the “Activity relative to isoproterenol” value in test [1] is on record as 3.7 × 10^-6. Further, in test [2], the “In Vivo Activity Relative to Isoproterenol” value was 1.77.

Consider `CNC(=O)CNC(=O)[C@H](Cc1ccc(NC(=O)CCCCC(C)NCC(O)c2ccc(O)c(O)c2)cc1)NC(=O)[C@H](CCCO)NC(C)=O` (some centres unmarked) [I], for which the “Activity relative to isoproterenol” value in test [1] was 8.0 × 10^-5. Further, the “In Vivo Activity Relative to Isoproterenol” value in test [2] came out at 1.48.

Regarding `CNC(=O)CNC(=O)[C@H](Cc1ccc(NC(=O)CCCCC(C)NCC(O)c2ccc(O)c(O)c2)cc1)NC(=O)[C@H](CCCNC(N)=O)NC(C)=O` (some centres unmarked) [J], the “In Vivo Activity Relative to Isoproterenol” value in test [2] is “.79”.

In the case of `CNC(=O)CNC(=O)[C@H](Cc1ccc(NC(=O)CCCCC(C)NCC(O)c2ccc(O)c(O)c2)cc1)NC(=O)[C@H](CCCNC(N)=O)NC(=O)OC(C)(C)C` (some centres unmarked) [K], in test [1], the “Activity relative to isoproterenol” value was 3.8 × 10^-5. For the same molecule, the “In Vivo Activity Relative to Isoproterenol” value in test [2] is “.22”.

Take `CNC(=O)CC[C@H](NC(C)=O)C(=O)N[C@@H](Cc1ccc(NC(=O)CCCC(C)NCC(O)c2ccc(O)c(O)c2)cc1)C(=O)N[C@@H](CCC(=O)NC)C(=O)NC` (some centres unmarked) [L]: in test [1], the “Activity relative to isoproterenol” value is 4.5 × 10^-6.

As for `CNC(=O)CC[C@H](NC(C)=O)C(=O)N[C@@H](Cc1ccc(NC(=O)CCCCC(C)NCC(O)c2ccc(O)c(O)c2)cc1)C(=O)N[C@@H](CCC(=O)NC)C(=O)NC` (stereo partly drawn) [M, N^α -Acetyl-N'-Methyl-L-Glutaminyl-p-[6-(β-3',4'-Dihydroxyphenyl-β-Hydroxy)-Ethylamino-n-Heptanoylamino]-L-Phenylalanyl-N'-Methyl-L-Glutaminyl-Methylamide], the “Activity relative to isoproterenol” value in test [1] was 2.3 × 10^-5.

On to `CNC(=O)CC[C@H](NC(C)=O)C(=O)N[C@@H](Cc1ccc(NC(=O)CCCCCC(C)NCC(O)c2ccc(O)c(O)c2)cc1)C(=O)N[C@@H](CCC(=O)NC)C(=O)NC` (some centres unmarked) [N], for which the “Activity relative to isoproterenol” value in test [1] is recorded as 8.6 × 10^-6.

On to `CNC(=O)CNC(=O)[C@H](Cc1ccc(NC(=O)CCCCC(C)NCC(O)c2ccc(O)c(O)c2)cc1)NC(=O)[C@H](CCCO)NC(=O)[C@H](CCCO)NC(=O)[C@H](CCCO)NC(=O)OC(C)(C)C` (some centres unmarked) [O] (Boc-[Nva(5-OH)][Nva(5-OH)][Nva(5-OH)][Phe(4-NH2)](X1)G-NHMe), for which the “Activity relative to isoproterenol” value in test [1] came out at 1.0. In addition, the “In Vivo Activity Relative to Isoproterenol” value in test [2] is “.76”.

Turning to `CNC(=O)CNC(=O)[C@H](CCCO)NC(=O)[C@H](CCCO)NC(=O)[C@H](CCCO)NC(=O)[C@H](Cc1ccc(NC(=O)CCCCC(C)NCC(O)c2ccc(O)c(O)c2)cc1)NC(=O)OC(C)(C)C` (some centres unmarked) [P] (Boc-[Phe(4-NH2)](X1)[Nva(5-OH)][Nva(5-OH)][Nva(5-OH)]G-NHMe), in test [1], the “Activity relative to isoproterenol” value is given as 7.9 × 10^-1. Moreover, in test [2], the “In Vivo Activity Relative to Isoproterenol” value was “.59”.

The values are drawn from US4587046A, “Drug-carrier conjugates” (The Regents of the University of California, priority 1982, dated 1986).
